Test results published in patent US4350754A, “Blocked development restrainers” (Polaroid Corporation, priority 1981, dated 1982).

Assay: Release kinetics in solution: t1/2, time for one half of the molecule to cleave and release the azole moiety
Assay type: physicochemical
Details: 1×10^-4 molar in 30% acetonitrile/0.25 N aqueous KOH, 22°±0.1° C.; release of azole moiety
Source text: The release kinetics in solution of the compounds of the invention vary over a wide range.
*rate of hydrolysis approximates rate of release
**measured in 50% ethanol/water solution
***solution was 0.022N in KOH

For `Cn1c(=O)[nH]cc(CSc2nnnn2-c2ccc(O)cc2)c1=O` [Compound XI], which t1/2 is on record?
Its t1/2 is 4.0 s.

For `O=c1[nH]cc(CSc2ncccn2)c(=O)[nH]1` [Compound XVIII], which t1/2 is on record?
Its t1/2 is 35.9 s.

Which t1/2 does the source give for `O=c1[nH]cc(CSc2ncnc3[nH]cnc23)c(=O)[nH]1` [Compound XVII] here?
The t1/2 was 77.8 s.

For `CC(=NO)c1ccc(-n2nnnc2SCc2c[nH]c(=O)n(C)c2=O)cc1` [Compound XXVI], which t1/2 is on record?
The t1/2 was 0.87 s.

Which t1/2 does the source give for `CC(=O)n1c(=O)[nH]cc(Cn2nnn(-c3ccccc3)c2=S)c1=O` [Compound XXXI] here?
The t1/2 was 911 s.

With `O=c1[nH]cc(Cn2nc(-c3ccccc3)oc2=S)c(=O)[nH]1` [Compound X] as the compound, how does the t1/2 read?
Its t1/2 is 1080 s.

For `Cn1c(=O)[nH]cc(CSc2nnnn2-c2ccccc2)c1=O` [II], which t1/2 is on record?
Its t1/2 is 0.81 s.

With `Cn1c(=O)[nH]cc(Cn2nnn(-c3ccccc3)c2=S)c1=O` [VIII] as the compound, how does the t1/2 read?
Its t1/2 is 1512 s.

For `O=c1[nH]cc(Cn2nnn(-c3ccccc3)c2=S)c(=O)[nH]1` [VII], which t1/2 is on record?
The t1/2 was 900 s.

With `O=C(c1ccccc1)n1c(=O)[nH]cc(CSc2nnnn2-c2ccccc2)c1=O` [XII] as the compound, how does the t1/2 read?
The t1/2 was 31.2 s.

For `O=c1[nH]cc(Cn2nc(-c3cccs3)oc2=S)c(=O)[nH]1` [XIV], which t1/2 is on record?
Its t1/2 is 4320 s.

Same assay, conditions: 30% acetonitrile/0.25 N aqueous KOH, 22° C.; rate of hydrolysis approximates rate of release

Which t1/2 does the source give for `CC(=O)Oc1ccc(-n2nnnc2SCc2c[nH]c(=O)n(C)c2=O)cc1` [V] here?
The t1/2 was 1.8 to 4.0 s.

Same assay, conditions: hydrolysis; 30% acetonitrile/0.25 N aqueous KOH, 22° C.

With `CC(=O)Oc1ccc(-n2nnnc2SCc2c[nH]c(=O)[nH]c2=O)cc1` [Compound XX] as the compound, how does the “t1/2 (hydrolysis)” value read?
The value was 2.5 s.

Same assay, conditions: measured in 50% ethanol/water solution; 22° C.

With `Cc1ccc(Nc2nnc([Se]Cc3c[nH]c(=O)[nH]c3=O)[se]2)cc1` [Compound XIX] as the compound, how does the t1/2 read?
The t1/2 was 48.8 s.
